{
  "source": "patent US3980646A",
  "about": "“3-Methylpyrazole-5-carboxylates and medicaments containing these compounds” (Wulfing; Johann A., priority 1974, dated 1976)",
  "key": {"serum fatty acids (FFS)": {"system": "serum fatty acids (FFS)", "test": "influence on the serum fatty acids (FFS) of hyperlipacidaemic rats, alcohol lipolysis", "format": "in vivo, rats (Wistar)", "settings": "alcohol 2 g/kg i.v., 100 mg/kg oral 3 hours before blood removal", "experimental": "Investigations on a total of 260 Wistarrats were conducted with 7-[3-(N-methyl-N-2-hydroxyethyl)-amino-2-hydroxypropyl]-1,3-dimethylxanthine-3-methylpyrazole-5-carboxylate.\nrats, starve for 5 hours,\nDose: alcohol 2g/kg body weight in 20% solution i.v.,\nDose: active principle according to the invention\n100 mg/kg body weight, oral by esophagus probe\n3 hours before blood removal"}, "[1]": {"test": "general pharmacological effects (lipolysis inhibition, lipid lowering, tachyphylaxis, toxicity)", "format": "in vivo"}, "serum cholesterol": {"system": "serum cholesterol", "test": "influence on the serum cholesterol of repeated application", "format": "in vivo, rats male (Wistar)", "settings": "for serum cholesterol: individual animals, starve for 5 hours, 100 mg/kg; for serum cholesterol / serum cholesterol, mean (x10): 100 mg/kg x/day p.o.; for serum cholesterol, mean (x10): control 71.28", "experimental": "Influence on the serum cholesterol of repeated application of\n(§1) 100 mg/kg x/day p.o. rats male, starve for 5 hours, ether narcosis, heart\n(§2) last application 1 hour before killing (cf. FIG. 3)"}, "free fatty acids (FFS)": {"system": "free fatty acids (FFS)", "test": "influence on the free fatty acids (FFS) after repeated application once daily for 4 days", "format": "in vivo, Rats male (Wistar)", "settings": "for free fatty acids (FFS): individual animals; for free fatty acids (FFS) / free fatty acids (FFS), mean (x10): 4 × appl. 50 mg/kg p.o.; for free fatty acids (FFS), mean (x10): control 1.27, p<0.001", "experimental": "Rats male, repeated application once daily for 4 days,\non the 4th day groups of 10 animals were killed at\nintervals of 30 minutes, 1 hour and 2 hours after the\nlast application by ether narcosis and heart puncture.\n10 controls were given esophagus probe, animals starved\nfor 17 hours before killing (cf. FIG. 4)\n7-[3-(N-methyl-2-hydroxyethyl)-amino-2-\nhydroxypropyl]-1,3-dimethylxanthine-3-\nmethylpyrazole-5-carboxylate 50 mg/kg peroral\n3-methylpyrazole-5-carboxylic acid (3-MPC)\neq./kg 15 mg/kg peroral"}, "Triglycerides": {"system": "Triglycerides", "test": "triglycerides in hyperlipacidaemic rats treated with octylphenol polyethylene glycolether", "format": "in vivo, Male rats (Wistar)", "experimental": "Male rats, starve for 22 hours, ether narcosis, heart puncture\nDose: 1000 mg/kg of octylphenyl polyethylene glycolether i.v.\n6 hours before blood removal\nDose: 100 mg/kg of 7-[3-(N-methyl-N-2-hydroxyethyl)-amino-2-\nhydroxypropyl]-1,3-dimethylxanthine-3-methylpyrazole-5-\ncarboxylate by esophagus probe, 6 hours, 4 hours and\n2 hours before blood removal"}, "serum triglycerides": {"system": "serum triglycerides", "test": "influence on the serum triglycerides of repeated application", "format": "in vivo, rats male (Wistar)", "settings": "for serum triglycerides: individual animals, starve for 5 hours, 100 mg/kg; for serum triglycerides / serum triglycerides, mean (x10): 100 mg/kg x/day p.o.; for serum triglycerides, mean (x10): control 133.6", "experimental": "Influence on the serum triglycerides of repeated application of\nas §1, §2"}, "[2]": {"settings": "100 mg/kg over 4 days, result in words"}},
  "note": "Values joined by “and” are separate entries in the source; they are usually repeats but may differ in a detail not shown here. Identical values can stand only once. “Also recorded” adds a separate entry of the source.",
  "data": [
    {"smiles": "CN(CCO)CC(O)Cn1cnc2c1c(=O)n(C)c(=O)n2C.Cc1cc(C(=O)O)[nH]n1", "note": "(stereo not drawn) [7-[3-(N-methyl-N-2-hydroxyethyl)-amino-2-hydroxypropyl]-1,3-dimethylxanthine-3-methylpyrazole-5-carboxylate]", "values": [
      {"measurement": "FFS", "setting": "serum fatty acids (FFS); individual animals, 100 mg/kg", "value": "0.45 μval/ml and 0.58 μval/ml and 0.59 μval/ml and 0.60 μval/ml and 0.52 μval/ml and 0.56 μval/ml and 0.43 μval/ml and 0.66 μval/ml and 0.67 μval/ml and 0.53 μval/ml"},
      {"measurement": "FFS, mean (φ)", "setting": "serum fatty acids (FFS); mean, control φ 0.64, alcohol series φ 0.79, p<0.001", "value": 0.56, "unit": "μval/ml"},
      {"measurement": "influence on free fatty acids (FFS)", "setting": "[1]; doses down to 2 mg/kg, normal and hyperlipacidaemic rats (starved animals, alcohol animals)", "value": "significantly influences the free fatty acids (FFS)"},
      {"measurement": "effect (lipolysis inhibition, reducing triglyceride and cholesterol level, low toxicity)", "setting": "[1]; result in words", "value": "particularly marked effect"},
      {"measurement": "effect on the serum cholesterol on repeated application", "setting": "serum cholesterol; [2]", "value": "uniform and, in some cases, even increased effect; also recorded: still significantly reduced"},
      {"measurement": "serum cholesterol", "setting": "serum cholesterol; 1st day", "value": "71.70 mg % and 49.06 mg % and 51.89 mg % and 67.92 mg % and 68.87 mg % and 52.83 mg % and 50.94 mg %"},
      {"measurement": "serum cholesterol, mean (x10)", "setting": "serum cholesterol; 1st day", "value": 58.68, "unit": "mg %"},
      {"measurement": "serum cholesterol", "setting": "serum cholesterol; 2nd day", "value": "37.4 mg % and 54.2 mg % and 55.2 mg % and 69.9 mg % and 65.0 mg % and 69.1 mg % and 39.4 mg % and 47.3 mg % and 49.3 mg % and 51.2 mg %"},
      {"measurement": "serum cholesterol, mean (x10)", "setting": "serum cholesterol; 2nd day", "value": 53.8, "unit": "mg %"},
      {"measurement": "serum cholesterol", "setting": "serum cholesterol; 3rd day", "value": "52.36 mg % and 71.24 mg % and 67.81 mg % and 50.64 mg % and 57.51 mg % and 64.38 mg % and 62.66 mg % and 68.67 mg % and 60.94 mg %"},
      {"measurement": "serum cholesterol, mean (x10)", "setting": "serum cholesterol; 3rd day", "value": 62.75, "unit": "mg %"},
      {"measurement": "serum cholesterol", "setting": "serum cholesterol; 4th day", "value": "42.98 mg % and 37.19 mg % and 52.07 mg % and 64.46 mg % and 80.99 mg % and 47.11 mg % and 65.29 mg % and 58.68 mg % and 50.41 mg % and 43.80 mg %"},
      {"measurement": "serum cholesterol, mean (x10)", "setting": "serum cholesterol; 4th day", "value": 54.30, "unit": "mg %"},
      {"measurement": "free fatty acids (FFS)", "setting": "free fatty acids (FFS); 30' after last application", "value": "0.72 μval/ml plasma and 0.94 μval/ml plasma and 0.69 μval/ml plasma and 0.83 μval/ml plasma and 1.36 μval/ml plasma and 0.89 μval/ml plasma and 0.66 μval/ml plasma and 0.67 μval/ml plasma and 0.86 μval/ml plasma and 1.07 μval/ml plasma"},
      {"measurement": "free fatty acids (FFS)", "setting": "free fatty acids (FFS); 1 h after last appl.", "value": "0.75 μval/ml plasma and 0.42 μval/ml plasma and 0.45 μval/ml plasma and 0.56 μval/ml plasma and 0.67 μval/ml plasma and 0.54 μval/ml plasma and 0.86 μval/ml plasma and 0.63 μval/ml plasma and 0.98 μval/ml plasma and 0.89 μval/ml plasma"},
      {"measurement": "free fatty acids (FFS)", "setting": "free fatty acids (FFS); 2 h after last appl.", "value": "0.79 μval/ml plasma and 0.58 μval/ml plasma and 0.94 μval/ml plasma and 0.80 μval/ml plasma and 1.10 μval/ml plasma and 1.07 μval/ml plasma and 0.84 μval/ml plasma and 0.90 μval/ml plasma and 0.97 μval/ml plasma and 0.83 μval/ml plasma"},
      {"measurement": "free fatty acids (FFS), mean (x10)", "setting": "free fatty acids (FFS); 30' after last application", "value": 0.87, "unit": "μval/ml plasma"},
      {"measurement": "free fatty acids (FFS), mean (x10)", "setting": "free fatty acids (FFS); 1 h after last appl.", "value": 0.68, "unit": "μval/ml plasma"},
      {"measurement": "free fatty acids (FFS), mean (x10)", "setting": "free fatty acids (FFS); 2 h after last appl.", "value": 0.88, "unit": "μval/ml plasma"},
      {"measurement": "weakening of effect on free fatty acid content by pretreatment", "setting": "free fatty acids (FFS); repeated application, result in words", "value": "does not have this effect"},
      {"measurement": "triglyceride level", "setting": "Triglycerides; hyperlipacidaemic rats, result in words", "value": "significant reduction in the triglyceride level"},
      {"measurement": "TG", "setting": "Triglycerides; individual animals, octylphenol polyethylene glycolether 1000 mg/kg i.v. 6 hours before, 100 mg/kg per os 6, 4 and 2 hours before killing", "value": "644.4 mg % and 687.4 mg % and 701.6 mg % and 707.4 mg % and 610.0 mg % and 703.1 mg % and 695.9 mg % and 711.7 mg %"},
      {"measurement": "TG, mean (x)", "setting": "Triglycerides; mean, octylphenol polyethylene glycolether 1000 mg/kg i.v., 100 mg/kg per os 6, 4 and 2 hours before killing, control x = 777.2, p<0.001", "value": 687.0, "unit": "mg %"},
      {"measurement": "effect on the serum triglycerides on repeated application", "setting": "serum triglycerides; [2]", "value": "uniform and, in some cases, even increased effect; also recorded: still significantly reduced"},
      {"measurement": "serum triglycerides", "setting": "serum triglycerides; 1st day", "value": "85.9 mg% and 57.3 mg% and 118.6 mg% and 104.5 mg% and 65.9 mg% and 88.8 mg%"},
      {"measurement": "serum triglycerides, mean (x10)", "setting": "serum triglycerides; 1st day", "value": 82.6, "unit": "mg%"},
      {"measurement": "serum triglycerides", "setting": "serum triglycerides; 2nd day", "value": "38.7 mg% and 61.6 mg% and 54.4 mg% and 63.0 mg% and 95.9 mg% and 87.3 mg% and 127.4 mg% and 74.4 mg% and 57.2 mg% and 88.7 mg%"},
      {"measurement": "serum triglycerides, mean (x10)", "setting": "serum triglycerides; 2nd day", "value": 74.8, "unit": "mg%"},
      {"measurement": "serum triglycerides", "setting": "serum triglycerides; 3rd day", "value": "60.1 mg% and 63.0 mg% and 90.2 mg% and 108.8 mg% and 50.1 mg% and 97.4 mg% and 80.2 mg% and 105.9 mg% and 58.7 mg%"},
      {"measurement": "serum triglycerides, mean (x10)", "setting": "serum triglycerides; 3rd day", "value": 77.4, "unit": "mg%"}
    ]}
  ]
}
